# A melting point compilation (Tetko et al.; mined from patent text by program, amines drawn as free bases though some values may be those of a salt)
row,Compound,melting point [°C]
1,COc1ccccc1C1(O)C(O)CCC2CN(Cc3ccccc3)CC21 (stereo not given),140
2,Cc1c(C(=O)O)ccc(S(C)(=O)=O)c1C1=NOCC1,182 to 184
3,COc1c(Cl)c(F)cc2c(=O)c(C(=O)O)cn(C3CC3)c12,195 to 199
4,CC1(C)CN(Cc2cc3ncccc3o2)c2nc(-c3ccncc3)cc(=O)n2C1,170 to 171
5,Brc1ccc2[nH]c(-c3ccccc3)c(CCN3CCCCC3)c2c1,121 to 122
6,CCOC(=O)c1cn(C)nc1Cl,65 to 66
7,CCOC(=O)C1Sc2ccccc2C1=O (stereo not given),138 to 140
8,Nc1sc2c(c1C(=O)c1ccc(I)c3ccccc13)CCC2,253 to 255
9,O=C1C(=Cc2ccccc2)CS(=O)(=O)CC1=Cc1ccccc1,201 to 203
10,CCOC(=O)CCC(=O)NCc1ccc(N)cc1,62 to 64
11,CS(=O)c1ccc(-c2nc3ncccc3[nH]2)cc1 (stereo not given),240 to 242
12,O=c1n(CCC#Cc2ccccn2)nc2ccccn12,95.5 to 96
13,CS(=O)(=O)N1Cc2cccc(-c3ccc4cnc(Nc5ccc(C6CCN(CC(N)=O)CC6)cc5)nn34)c2C1,244 to 247
14,Cc1ccc(C(=O)N2CCC(CN3CCc4oc5ccccc5c4C3)CC2)cc1,140
15,NC(=O)c1ccc(O[C@@H]2CNC[C@H]2O)cc1 (relative stereo),202 to 203
16,CCOC(=O)c1ccc(OC(=O)c2ccc(C(=O)Oc3ccc(C(=O)OCC)cc3)cc2)cc1,187 to 189
17,CCOCc1nc2c(N)nc(C)c(C)c2n1NCc1cccnc1,147 to 149
18,COC(=O)c1ccc2[nH]cc(Cc3ccc(OCc4ccc5ccccc5n4)cc3)c2c1,179 to 180
19,CSc1c(C(N)=S)nn(-c2c(Cl)cc(C(F)(F)F)cc2Cl)c1N,161
20,CC(C)(C)OC(=O)N[C@@H](Cc1ccc2ccccc2c1)C(=O)OCc1ccccc1,90 to 91
21,Cn1c(COc2nn3c(-c4ccccc4F)nncc3c2-c2ccccc2F)nc2ccccc21,218 to 220
22,COC(=O)C1CCC2C3CCC4=CC(O)CCC4(C)C3C(=O)CC12C (stereo not given),121 to 125
23,O=Cc1ccc2c3ccccc3c3ccccc3c2c1,160 to 162
24,COC(=O)C=Cc1cc([N+](=O)[O-])ccc1Cl,159 to 162
25,CC1(C)CC(C)(C)CC2(CCCC(=O)N2)C1,126 to 128

row,Compound,melting point [°C]
1,COc1cc(OC)c2c(=O)[nH]c(-c3cccc(N4CCN(CC(C)C)CC4)n3)nc2c1,188 to 189
2,COc1cccc(-c2nc3n(n2)Cc2cc(OC)ccc2-3)c1,166 to 167
3,COC(=O)c1ccccc1Sc1ccccc1OC,82 to 84
4,CCS(=O)(=O)CCc1ccc2[nH]cc(CC3CCCN3C)c2c1 (stereo not given),59 to 62
5,CC(C)(C)c1cc(CCc2ccccc2NC(=O)NCC(C)(C)c2ccc(N3CCCC3)cc2)cc(C(C)(C)C)c1O,195 to 196
6,CC[C@H](C)[C@@H](CO)NC(=O)C[C@H](O)[C@H](CC(C)C)NC(=O)[C@H](CC(C)C)NC(=O)[C@H](Cc1cccc2ccccc12)NC(=O)OCc1ccccc1,206 to 212
7,COC(=O)c1cc(SC#N)c(N)cc1OC,184 to 185
8,Cc1noc(C)c1Cn1cc(N2C(=O)CN(CCc3cccc(F)c3)C2=O)cn1,110 to 111
9,Clc1cc(Oc2cc(Cl)nc(-c3ccc(Cl)s3)n2)ccn1,154 to 156
10,CN(C(=O)c1cc(=O)n(C)c2ccc(C(=O)c3ccc(Cl)cc3)cc12)c1cccc(Cl)c1,184
11,Cc1cc(NC(=O)OC(C)(C)C)c(N)cc1-c1ccc(F)cc1,112
12,CNC(=O)C(NC(=O)c1ccc(F)cc1C(F)(F)F)C(O)CO (stereo not given),163
13,COC(=O)C1=C(C)N(CCOC(=O)c2ccccc2)C(=O)NC1c1ccc2ccccc2c1 (stereo not given),116
14,CCCCC(O)Cc1c(O)c2cccnc2n(-c2ccccc2)c1=O (stereo not given),184 to 186
15,O=c1c(O)c(-c2ccc3c(c2)OC(c2ccccc2)(c2ccccc2)O3)oc2cc(O)cc(O)c12,239 to 240
16,CN1C2CCC1CN(c1ccc(C#Cc3ccc(N)cc3)nn1)C2,204 to 210
17,O=C1CC(C(=O)OCc2ccccc2)C(=O)C(Cc2ccccc2)N1 (stereo not given),119 to 120
18,"O=C(O)C1(O)CCc2ccccc2C1 (single isomer, unassigned; (-))",134 to 135
19,CC(C)(Sc1nc(N)cc(Cl)n1)c1ccccn1,183 to 184
20,Cn1c([N+](=O)[O-])cnc1C(C)(C)O,102 to 107
21,CCCCC1OC(=O)c2cc(N)ccc21 (stereo not given),129 to 131
22,CCSc1nc2c(N)nc(-c3ccncc3)nc2[nH]1,168 to 170
23,NC(=O)c1cc(-c2ccc(Cl)cc2)sc1N,255 to 257
24,CCC(=O)Nc1cc(-c2ccnc(Nc3cccc(Cl)c3)n2)ccn1,215 to 216
25,CCN(C1CC(C)(C)Oc2ccc(OCCO)cc21)S(C)(=O)=O (stereo not given),76 to 78

row,Compound,melting point [°C]
1,Oc1ccc(C2COc3cc(O)ccc3C2c2ccc(OCCN3CCCC3)cc2)cc1 (stereo not given),112 to 116
2,COC1=C(OC)C(=Nc2ccc(Cl)c(Cl)c2)N(C)C1=O,111 to 113
3,Nc1ccc2c(c1Br)C(=O)C1(CC1)O2,167 to 170
4,Cc1cc(C)c(N)cn1,62 to 64
5,N#CCc1cccc2c(C3CCCCC3)nccc12,85.3 to 85.6
6,CC(=O)C1CCC2C3CCC4CC(OC(=O)CI)CCC4(C)C3C(OC(=O)CI)CC12C (stereo not given),112 to 113
7,O=C(N[C@H]1CN(Cc2ccccc2)[C@@H]2CCO[C@H]12)C(F)(F)F (relative stereo),150 to 154
8,COCc1n[nH]c2c1c(=O)n(-c1ccccc1)c1ncccc21,263 to 265
9,O=[N+]([O-])c1sc(Nc2c(Cl)cccc2Cl)nc1Cl,141
10,CC(=O)N(C)c1cccc(-c2ccnc3c(C(=O)c4cccs4)cnn23)c1,190 to 192
11,O=C(SC[C@H](SC(=O)c1ccccc1)C(=O)N[C@@H](CO)C(=O)O)c1ccccc1,147 to 150
12,COc1nc(SCC(N)c2ncco2)cnc1NS(=O)(=O)c1cccc(Cl)c1Cl (stereo not given),168 to 170
13,FC(F)(F)c1cccc(-c2[nH]c(C3CCNCC3)cc2-c2ccncc2)c1,106 to 112
14,O=C1CCC(c2cccc(F)c2)(c2cccc(F)c2)[C@@H]2CN(Cc3ccccc3)C[C@H]12 (racemic),124
15,COC1OC(=O)c2cccc([N+](=O)[O-])c21 (stereo not given),115 to 118
16,CCCOC(=O)c1ccc2c3cccc4cccc(c5ccc(C(=O)OCCC)c1c25)c43,253
17,CC(=O)CSC1=CC(=O)CC(c2ccccc2Cl)C1 (stereo not given),81 to 82
18,CCCC(CCC)c1ccc(CN(C)c2ccc(-c3coc(CN(CC(=O)O)Cc4ccccc4)n3)cc2)cc1,129 to 131
19,Cc1noc(NS(=O)(=O)c2ccccc2)c1-c1ccccc1,124 to 126
20,CC1=C(C(=O)OCCC#N)C(c2c(F)cccc2Cl)C(C(=O)OC2CCCC2)=C(C)N1 (stereo not given),135 to 136
21,N#Cc1c(Cl)cccc1CBr,83
22,COc1ccc(Cl)cc1C(O)C(N)=O (stereo not given),121 to 123
23,O=C(O)c1ccc(NCC=Cc2ccccc2)cc1,200 to 202
24,Nc1cccc2c1CNC2,81 to 85
25,COc1cc2c(cc1OC)C(Cc1ccc(NC(C)=O)c(I)c1)N(C(=O)C(F)(F)F)CC2 (stereo not given),174 to 175

row,Compound,melting point [°C]
1,CC(C)(C)CCNC(=O)c1ccc(CC(C)(C)C)cc1,124 to 126
2,COc1ccc2c3c(oc2c1)CC(CC1CCN(Cc2ccccc2)CC1)C3=O (stereo not given),137 to 138
3,O=S(=O)(c1ccccc1)c1cnc2c(N3CCNCC3)cccc2c1,164
4,COc1ccc(-c2sc3c(c2CBr)c(=O)c(-c2cnco2)cn3Cc2ccccc2F)cc1,234 to 236
5,COc1nc(Br)cnc1NS(=O)(=O)c1cccc2c(N(C)C)cccc12,166 to 167
6,CCc1c(CCNC(=O)CCC(C)CC(=O)NCCc2ccc(OC)c(OC)c2CC)ccc(OC)c1OC (stereo not given),152 to 153
7,CCOC(=O)C1=C(C(F)(F)F)Nc2n[nH]cc2C1c1ccccc1 (stereo not given),110 to 115
8,CC(C)(O)C(=O)Nc1ccc2ccccc2c1,155 to 157
9,CCCn1nc(C(C)C)c(C(=O)OCc2ccccc2C(=O)c2ccccc2)c1Cc1ccc(-c2ccccc2S(=O)(=O)NC(=O)OC(C)(C)C)c(F)c1,57 to 61
10,CCOC(=O)CC(C(=O)c1ccc(OC)cc1)c1ccc(OC)c(F)c1 (stereo not given),117 to 118
11,COc1c(C)cc(C)cc1/C=C/C(=O)O,178 to 180
12,Cc1csc2nc(-c3ccc(C(=O)O)cc3)nc(Cc3ccc4c(c3)OCO4)c12,250
13,COc1ccc(-c2nc(SCCOCCn3ccnc3C)[nH]c2-c2ccc(OC)cc2)cc1,77 to 79
14,CCc1oc2ccc([N+](=O)[O-])cc2c1C(=O)c1ccc(OC)cc1,130
15,CN(C(=O)c1n[nH]c2c(=O)[nH]c3cc(Cl)ccc3c(=O)c12)c1ccccc1,308
16,O=S(=O)(NC1CCC(O)CC1)c1cccc2ccccc12 (stereo not given),174
17,Cc1oc(-c2ccccc2)nc1CCC(=O)c1ccc(CC2SC(=O)NC2=O)cc1 (stereo not given),145 to 146
18,O=C(Nc1ccc(-n2nc(C(F)(F)F)cc2C(F)(F)F)cc1)c1ccc(Cl)nc1Cl,115 to 117
19,CC(C)(O)C(=O)c1ccc(Oc2ccc(C(=O)C(C)(C)O)cc2)cc1,96 to 99
20,Cc1c(Cl)cccc1C(=N)NO,119 to 121
21,CCCCCCCOc1ccc(CNc2ccc(C(=O)OCC)cc2)cc1,111 to 113
22,Cc1cc(C)cc(Oc2cc(Br)cc(S(=O)(=O)N3CCN(C(=O)OC(C)(C)C)CC3)c2)c1,155
23,CC(=O)c1ccc(NS(C)(=O)=O)c(Cl)c1,129 to 131
24,CCN1CC(C(=O)Nc2cnccn2)CC2c3cccc4[nH]cc(c34)CC21 (stereo not given),151 to 155
25,CC1(C)CCC(C)(C)c2cc3cc(-c4csc(C(=O)O)c4)ccc3cc21,207 to 208
